The results in this text go back to patent US20130071854A1, “METHODS FOR THE IDENTIFICATION AND CHARACTERIZATION OF HDAC INTERACTING COMPOUNDS” (priority 2009, published 2013).

Read-outs that look alike come from different tables or passages of the source.

The term EC50 denotes the concentration needed to bring the measured effect to its halfway point. The low end stands for a more potent agent, the high end for a less potent agent.

Experiment [1] has as its system RERE. The experiment in a line: Chemoproteomic binding profiling, K562 cell extract, SAHA/ITF2357 probe matrix (Kd app), ELSA (ELM-SANT) domain protein. As to conditions: protein RERE; ELSA (ELM-SANT) domain proteins. Further details: species or system human.
Experiment [2] concerns MIER1. Described as above. Further details: species or system human. Particulars: ELSA (ELM-SANT) domain proteins.
For experiment [3], the system named is acetylated histones H3 and H4. In words: Cell-based histone acetylation assay (immunofluorescence, western blotting). The arrangement: species or system human. Particulars: K562 and HeLa cells. In general terms: A western blot detects proteins with antibodies after separation by electrophoresis.
In experiment [4] the target is T1, non-HDAC targets (e.g. BZW2, ISOC2, aldehyde dehydrogenases) (Homo sapiens, UniProt Q96AB3).
T1 construct: endogenous in cells; host or cells: K562 whole cell extract
T1 sequence (Q96AB3 1-205): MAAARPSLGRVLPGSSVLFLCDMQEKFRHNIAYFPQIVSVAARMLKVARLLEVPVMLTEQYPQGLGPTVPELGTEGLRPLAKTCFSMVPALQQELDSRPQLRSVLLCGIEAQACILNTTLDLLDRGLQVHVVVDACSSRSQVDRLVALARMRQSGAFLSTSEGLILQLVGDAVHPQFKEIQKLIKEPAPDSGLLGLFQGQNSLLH
The experiment in a line: Chemoproteomic binding profiling, K562 cell extract, SAHA/ITF2357 probe matrix (Kd app). Particulars: protein ISOC2; selected HDACi off-targets.

Experiment [5] addresses T2, non-HDAC targets (e.g. BZW2, ISOC2, aldehyde dehydrogenases) (Homo sapiens, UniProt O94788).
T2 construct: endogenous in cells; host or cells: K562 whole cell extract
T2 sequence (O94788 1-518): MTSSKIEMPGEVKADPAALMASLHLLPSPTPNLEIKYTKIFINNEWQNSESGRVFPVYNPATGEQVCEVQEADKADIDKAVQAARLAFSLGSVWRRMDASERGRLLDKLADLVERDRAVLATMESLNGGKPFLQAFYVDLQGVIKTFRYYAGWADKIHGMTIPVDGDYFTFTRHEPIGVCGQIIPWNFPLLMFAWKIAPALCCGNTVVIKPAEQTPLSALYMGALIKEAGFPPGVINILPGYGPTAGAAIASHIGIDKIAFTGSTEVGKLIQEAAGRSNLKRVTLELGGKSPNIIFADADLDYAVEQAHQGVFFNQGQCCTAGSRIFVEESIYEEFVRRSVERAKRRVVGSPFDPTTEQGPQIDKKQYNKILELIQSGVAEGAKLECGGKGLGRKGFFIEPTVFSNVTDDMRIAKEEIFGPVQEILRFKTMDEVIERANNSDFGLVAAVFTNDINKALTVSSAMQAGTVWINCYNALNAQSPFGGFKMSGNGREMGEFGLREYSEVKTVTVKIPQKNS
Described as above. As to conditions: protein ALDH1A2; selected HDACi off-targets.

Experiment [6] has as its target T3, non-HDAC targets (e.g. BZW2, ISOC2, aldehyde dehydrogenases) (Homo sapiens, UniProt P16152).
T3 construct: Kd^app CBR1; other: protein CBR1; selected HDACi off-targets
T3 sequence (P16152 1-277): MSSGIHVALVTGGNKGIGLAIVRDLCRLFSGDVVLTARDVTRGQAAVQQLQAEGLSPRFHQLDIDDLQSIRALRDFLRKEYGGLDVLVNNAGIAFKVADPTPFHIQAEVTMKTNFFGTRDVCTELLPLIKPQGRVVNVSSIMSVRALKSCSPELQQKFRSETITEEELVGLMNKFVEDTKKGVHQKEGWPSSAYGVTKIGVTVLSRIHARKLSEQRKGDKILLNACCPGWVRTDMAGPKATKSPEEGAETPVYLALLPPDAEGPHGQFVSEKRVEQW
The description is as above. Particulars: protein CBR1; selected HDACi off-targets.

Experiment [7] addresses T4, non-HDAC targets (e.g. BZW2, ISOC2, aldehyde dehydrogenases) (Homo sapiens, UniProt Q08209).
T4 construct: Kd^app PPP3CA; other: protein PPP3CA; selected HDACi off-targets
Described as above. Particulars: protein PPP3CA; selected HDACi off-targets.

Experiment [8] concerns the target T5, non-HDAC targets (e.g. BZW2, ISOC2, aldehyde dehydrogenases) (Homo sapiens, UniProt Q9Y6E2).
T5 construct: endogenous in cells; host or cells: K562 whole cell extract
T5 sequence (Q9Y6E2 1-419): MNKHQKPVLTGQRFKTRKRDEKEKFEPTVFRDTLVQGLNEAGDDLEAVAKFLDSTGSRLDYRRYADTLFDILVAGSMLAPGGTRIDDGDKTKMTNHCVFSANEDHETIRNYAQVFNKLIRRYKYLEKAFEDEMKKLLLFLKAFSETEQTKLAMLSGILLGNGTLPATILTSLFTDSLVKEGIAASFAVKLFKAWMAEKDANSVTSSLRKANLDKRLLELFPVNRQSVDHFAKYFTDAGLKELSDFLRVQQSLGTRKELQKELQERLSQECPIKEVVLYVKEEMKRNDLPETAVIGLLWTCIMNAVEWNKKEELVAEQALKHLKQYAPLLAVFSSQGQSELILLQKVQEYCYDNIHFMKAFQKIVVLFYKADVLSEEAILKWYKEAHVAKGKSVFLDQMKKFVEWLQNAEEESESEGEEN
Described as above. Particulars: protein BZW2; selected HDACi off-targets.

Experiment [9] relates to acetylated tubulin. The experiment in a line: Cell-based tubulin acetylation assay (immunofluorescence, western blotting). The arrangement: species or system human. As to conditions: for tubulin acetylation (in words): K562 and HeLa cells, immunofluorescence and western blotting.
In experiment [10] the test system is EHMT2. The experiment in a line: Chemoproteomic binding profiling, K562 cell extract, SAHA/ITF2357 probe matrix (Kd app), ELSA (ELM-SANT) domain proteins group. Particulars: protein EHMT2. The arrangement: species or system human.
Experiment [11] deals with CoREST complex. The experiment in a line: Chemoproteomic binding profiling, K562 cell extract, SAHA/ITF2357 probe matrix (Kd app). Further details: species or system human.
[12] abbreviates: protein GSE1, CoREST complex, read-out: Kd^app GSE1.
[13] abbreviates: protein HMG20A, CoREST complex, read-out: Kd^app HMG20A.
The mark [14] stands for this setting: protein HMG20B, CoREST complex, read-out: Kd^app HMG20B.
Setting [15] is: protein RCOR1, CoREST complex, read-out: Kd^app RCOR1.
Where [16] appears, read: protein RCOR2, CoREST complex, read-out: Kd^app RCOR2.
Where [17] appears, read: protein RCOR3, CoREST complex, read-out: Kd^app RCOR3.
[18] abbreviates: protein ZMYM2, CoREST complex, read-out: Kd^app ZMYM2.
The mark [19] stands for this setting: protein ZMYM3, CoREST complex, read-out: Kd^app ZMYM3.

Regarding `CCCCOc1ccc(CC(=O)NO)cc1` [bufexamac], the Kd was determined as 33 µM in experiment [1]; 367 µM in experiment [2]; 3 µM in experiment [4]; 3 µM in experiment [5]; 149 µM in experiment [6]; 304 µM in experiment [7]. The Kd was 3 µM in experiment [8]; 105 µM in experiment [10]; > 59.7 µM in [11] (setting [12]); > 59.7 µM in [11] (setting [13]); > 59.7 µM in experiment [11] (setting [14]); > 59.7 µM in experiment [11] (setting [15]). In addition, the Kd is > 59.7 µM in experiment [11] (setting [16]), > 59.7 µM in experiment [11] (setting [17]), 128 µM in experiment [11] (setting [18]) and 172 µM in [11] (setting [19]). Further, the “histone acetylation (in words)” value in experiment [3] is “did not affect the acetylation of histones”. The compound also registered an EC50 in experiment [9] (Homo sapiens, HeLa cells, treated 4 h, western blotting) of 2.9 µM. Moreover, the “tubulin acetylation (in words)” value in experiment [9] is recorded as “hyperacetylation of tubulin”; in experiment [9] (listed as Bufexamac), “strong increase in acetylated tubulin”.

Regarding `Nc1ccccc1NC(=O)c1ccc(CNC(=O)OCc2cccnc2)cc1` [MS-275], the Kd in experiment [1], in [2], in experiment [4], in experiment [5], in [6] and in experiment [7] was > 300 µM each time. For the same compound, the Kd in experiment [8], in [10], in [11] (read-out: Kd^app GSE1), in experiment [11] (read-out: Kd^app HMG20A), in experiment [11] (read-out: Kd^app HMG20B) and in [11] (read-out: Kd^app PHF21A) was > 300 µM throughout. Moreover, the Kd in experiment [11] (read-out: Kd^app RCOR1), in experiment [11] (read-out: Kd^app RCOR2), in [11] (read-out: Kd^app RCOR3), in [11] (read-out: Kd^app ZMYM2) and in [11] (read-out: Kd^app ZMYM3) was > 300 µM each time.

Consider `O=C(CCCCCCC(=O)Nc1ccccc1)NO` [SAHA, suberoylanilide hydroxamic acid], for which, in [3], the “histone acetylation (in words)” value is “increased steady state acetylation of tubulin and histones”. The Kd in experiment [6] and in [7] was > 10 µM each time. Also, the “tubulin acetylation (in words)” value in experiment [9] was “increased steady state acetylation of tubulin and histones”.

With `CCCC(CCC)C(=O)O` [valproate, valproic acid], the Kd in experiment [1] is 3120 µM; in [2], 507 µM; in experiment [4], > 10 µM; in experiment [5], > 10 µM; in [6], > 10 µM; in [7] it was > 10 µM. The Kd in experiment [8] was > 10 µM; in experiment [10], 1210 µM; in [11] (setting [12]), 224 µM; in experiment [11] (setting [13]), 322 µM; in experiment [11] (setting [14]), 380 µM; in [11] (protein PHF21A, CoREST complex, read-out: Kd^app PHF21A), 438 µM. Further, the Kd is 258 µM in [11] (setting [15]); 311 µM in experiment [11] (setting [16]); 274 µM in [11] (setting [17]); 700 µM in experiment [11] (setting [18]); 922 µM in experiment [11] (setting [19]). Also, the “histone acetylation (in words)” value in experiment [3] is given as “elicited staining of acetylated histones”. Further, the “tubulin acetylation (in words)” value in experiment [9] is on record as “did not affect tubulin”.

Take `O=C(/C=C/c1cccc(S(=O)(=O)Nc2ccccc2)c1)NO` [belinostat]: the Kd was 0.17 µM in experiment [2]; > 10 µM in [4]; > 10 µM in experiment [5]; 1.98 µM in experiment [6]; 3.5 µM in [7]; 2.25 µM in [8].

Turning to `Nc1ccccc1NC(=O)CCCCCCC(=O)Nc1ccccc1` [BML-210], the Kd in [1] was > 85 µM; in experiment [2], 50 µM; in experiment [4], > 85 µM; in [5], > 85 µM; in experiment [6] it was > 85 µM; in experiment [7], > 85 µM. The Kd was > 85 µM in experiment [8]; > 85 µM in [10]; 51 µM in experiment [11] (setting [12]); 40 µM in experiment [11] (setting [13]); 50 µM in experiment [11] (setting [14]); 46 µM in experiment [11] (setting [15]). Further, the Kd is 85 µM in experiment [11] (setting [16]), 55 µM in experiment [11] (setting [17]), > 85 µM in experiment [11] (setting [18]) and > 85 µM in experiment [11] (setting [19]).
